Patent US11072584B2, “Carbon monoxide releasing norbornenone compounds” (OTAGO INNOVATION LIMITED, priority 2015, dated 2021)
Where a name gives a salt, the structure may show the parent alone. Read-outs that look alike come from different tables or passages of the source.

Tests used:
[1] = tested on: MDCK cells; experiment: crystal violet cell adhesion (CVCA) cell toxicity assay
[2] = Canis lupus familiaris, MDCK, read-out: EC50 (μM), Active Compound

melting point	Structure (SMILES)	EC50 [1, 2]	further results
186 °C	CC12C(=O)C(C)(C(c3ccccc3)=C1c1ccccc1)C1([S+]([O-])c3ccccc3)C(=O)N(c3ccccc3)C(=O)C21 (centres unmarked) [oCOm-5, 3a-Phenylsulfinyl-3a,4,7,7a-tetrahydro-4,7-dimethyl-2,5,6-triphenyl-4,7-methano-1H-isoindole-1,3,8(2H)-trione]	–	–
–	Cc1noc([C@@H](N)CCCCN2C(=O)C3C4(C)C(=O)C(C)(C(c5ccccc5)=C4c4ccccc4)C3(Br)C2=O)n1 (stereo partly drawn) [oCOM-43, (1S)-1-amino-5-(3a-bromo-4,7-dimethyl-1,3,8-trioxo-5,6-diphenyl-1,3,3a,4,7,7a-hexahydro-2H-4,7-methanoisoindol-2-yl)-1-(3-methyl-1,2,4-oxadiazol-5-yl)pentane Trifluoroacetic Acid Salt]	> 100 µM	–
106 °C	CC12C(=O)C(C)(C(c3ccccc3)=C1c1ccccc1)C1(S(=O)(=O)c3ccccc3)C(=O)N(c3ccccc3)C(=O)C21 (centres unmarked) [oCOm-6, 3a-Phenylsulfonyl-3a,4,7,7a-tetrahydro-4,7-dimethyl-2,5,6-triphenyl-4,7-methano-1H-isoindole-1,3,8(2H)-trione]	–	–
–	Cc1c2c(c(C)c(-c3ccccc3)c1-c1ccccc1)C(=O)N(CCNCCN)C2=O [BP-23, 2-(2-(2-Aminoethyl)aminoethyl)-4,7-dimethyl-5,6-diphenyl-1H-isoindole-1,3,8(2H)-diione Bis-trifluoroacetate Salt]	–	EC50 ([1]; read-out: EC50 (μM), Inactive Compound, MDCK cells, inactive debromo or CO depleted analogues, 37° C.): > 100 µM
183 to 185 °C	Cc1c2c(c(C)c(-c3ccccc3)c1-c1ccccc1)C(=O)N(CCC(=O)NCCNC(=O)OC(C)(C)C)C2=O [BP-18, Tert-Butyl (2-(3-(4,7-dimethyl-1,3-dioxo-5,6-diphenylisoindolin-2-yl)propanamido)ethyl)carbamate]	–	–
181 to 182 °C	Cc1c2c(c(C)c(-c3ccccc3)c1-c1ccccc1)C(=O)N(CCNC(=O)OC(C)(C)C)C2=O [BP-20, Tert-Butyl (2-(4,7-dimethyl-1,3-dioxo-5,6-diphenylisoindolin-2-yl)ethyl)carbamate]	–	–
–	CN(C)C(=O)[C@@H](N)CCCCN1C(=O)C2C3(C)C(=O)C(C)(C(c4ccccc4)=C3c3ccccc3)C2(Br)C1=O (stereo partly drawn) [oCOM-36, N,N-Dimethyl (2S)-2-amino-6-(3a-bromo-4,7-dimethyl-1,3,8-trioxo-5,6-diphenyl-1,3,3a,4,7,7a-hexahydro-2H-4,7-methanoisoindol-2-yl)-hexanamide Trifluoroacetic Acid Salt]	> 100 µM	–
–	CC12C(=O)C(C)(C(c3ccccc3)=C1c1ccccc1)C1(Br)C(=O)N(CCCCCC(=O)O)C(=O)C21 (centres unmarked) [oCOM-38, 6-(3a-bromo-4,7-dimethyl-1,3,8-trioxo-5,6-diphenyl-1,3,3a,4,7,7a-hexahydro-2H-4,7-methanoisoindol-2-yl)-hexanoic Acid]	> 100 µM	–
–	COC(=O)[C@H](CCCCN1C(=O)C2C3(C)C(=O)C(C)(C(c4ccccc4)=C3c3ccccc3)C2(Br)C1=O)NC(C)=O (stereo partly drawn) [oCOM-41, Methyl (2S)-2-acetamido-6-(3a-bromo-4,7-dimethyl-1,3,8-trioxo-5,6-diphenyl-1,3,3a,4,7,7a-hexahydro-2H-4,7-methanoisoindol-2-yl)hexanoate]	> 100 µM	–
–	Cc1c2c(c(C)c(-c3ccccc3)c1-c1ccccc1)C(=O)N(CCN)C2=O [BP-21, 2-(4,7-Dimethyl-1,3-dioxo-5,6-diphenylisoindolin-2-yl)ethanaminium 2,2,2-trifluoroacetate, reference compound]	–	EC50 ([1]; Canis lupus familiaris, MDCK, read-out: EC50 (μM), Inactive Compound): 21 µM
–	Cc1nnc([C@@H](N)CCCCN2C(=O)C3C4(C)C(=O)C(C)(C(c5ccccc5)=C4c4ccccc4)C3(Br)C2=O)o1 (stereo partly drawn) [oCOM-45, (1S)-1-Amino-5-(3a-bromo-4,7-dimethyl-1,3,8-trioxo-5,6-diphenyl-1,3,3a,4,7,7a-hexahydro-2H-4,7-methanoisoindol-2-yl)-1-(5-methyl-1,3,-oxadiazol-2-yl)pentane Trifluoroacetic Acid Salt]	> 100 µM	–
